Measurements: PubChem BioAssay AID2060493 (Molecular Pharmacology Branch, DTP, NCI, 2025)
Values belong to the compound of their own block, whether it stands above or below them.

Test system: 616215-338-R-J1-PDC tumor spheroids, viability
Assay: Anticancer human tumor 616215-338-R-J1-PDC patient-derived colon adenocarcinoma cell line growth inhibition [GQUAD]
Settings: spheroids with HUVEC and MSC; for IC50: curve of first compound; for viability, T/C: stronger effect = lower value
Summary of the method: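 Viability of tumor cells grown as complex spheroids with endothelial and stromal cells, exposed to drug combinations. Top concentration at or near clinical Cmax (else 10 microM), diluted in half-log increments.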

[1] = second compound 0.0316 µM, first compound 0.0316 µM
[2] = second compound 0.0316 µM, first compound 0.1 µM
[3] = second compound 0.0316 µM, first compound 0.316 µM
[4] = second compound 0.0316 µM, first compound 1 µM
[5] = second compound 0.0316 µM, first compound 3.16 µM
[6] = second compound 0.0316 µM, first compound 10 µM
[7] = second compound 0.1 µM, first compound 0.0316 µM
[8] = second compound 0.1 µM, first compound 0.1 µM
[9] = second compound 0.1 µM, first compound 0.316 µM
[10] = second compound 0.1 µM, first compound 1 µM
[11] = second compound 0.1 µM, first compound 3.16 µM
[12] = second compound 0.1 µM, first compound 10 µM
[13] = second compound 0.316 µM, first compound 0.0316 µM
[14] = second compound 0.316 µM, first compound 0.1 µM
[15] = second compound 0.316 µM, first compound 0.316 µM
[16] = second compound 0.316 µM, first compound 1 µM
[17] = second compound 0.316 µM, first compound 3.16 µM
[18] = second compound 0.316 µM, first compound 10 µM
[19] = second compound 1 µM, first compound 0.0316 µM
[20] = second compound 1 µM, first compound 0.1 µM
[21] = second compound 1 µM, first compound 0.316 µM
[22] = second compound 1 µM, first compound 1 µM
[23] = second compound 1 µM, first compound 3.16 µM
[24] = second compound 1 µM, first compound 10 µM
[25] = second compound 3.16 µM, first compound 0.0316 µM
[26] = second compound 3.16 µM, first compound 0.1 µM
[27] = second compound 3.16 µM, first compound 0.316 µM
[28] = second compound 3.16 µM, first compound 1 µM
[29] = second compound 3.16 µM, first compound 3.16 µM
[30] = second compound 3.16 µM, first compound 10 µM
[31] = second compound 10 µM, first compound 0.0316 µM
[32] = second compound 10 µM, first compound 0.1 µM
[33] = second compound 10 µM, first compound 0.316 µM
[34] = second compound 10 µM, first compound 1 µM
[35] = second compound 10 µM, first compound 3.16 µM
[36] = second compound 10 µM, first compound 10 µM
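Further: spheroids exposed to agents for 7 days before readout.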
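Wherever viability, T/C is given: percent viability relative to DMSO vehicle control wells taken as 100%.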

SMILES: O=C(NO)c1cnc(N2CCN(S(=O)(=O)c3ccc4ccccc4c3)CC2)nc1 + CN(C)c1ccc(Nc2c3ccc(NC(=O)CCN4CCCC4)cc3nc3cc(NC(=O)CCN4CCCC4)ccc23)cc1
IC50 (second compound 0.0316 µM): 324 nM | IC50 (second compound 0.1 µM): 322 nM | IC50 (second compound 0.316 µM): 255 nM | IC50 (second compound 1 µM): 312 nM | IC50 (second compound 3.16 µM): 293 nM | IC50 (second compound 10 µM): 220 nM | viability, T/C [1]: 104% | viability, T/C [2]: 97.5% | viability, T/C [3]: 51.4% | viability, T/C [4]: 1.08% | viability, T/C [5]: 0.1% | viability, T/C [6]: 0.1% | viability, T/C [7]: 105% | viability, T/C [8]: 107% | viability, T/C [9]: 50.8% | viability, T/C [10]: 0.65% | viability, T/C [11]: 0.04% | viability, T/C [12]: 0.07% | viability, T/C [13]: 99.6% | viability, T/C [14]: 103% | viability, T/C [15]: 38.2% | viability, T/C [16]: 0.54% | viability, T/C [17]: 0.02% | viability, T/C [18]: 0.06% | viability, T/C [19]: 96.5% | viability, T/C [20]: 98.1% | viability, T/C [21]: 49.5% | viability, T/C [22]: 0.3% | viability, T/C [23]: 0.03% | viability, T/C [24]: 0.07% | viability, T/C [25]: 89.9% | viability, T/C [26]: 93.7% | viability, T/C [27]: 47% | viability, T/C [28]: 0.25% | viability, T/C [29]: 0.07% | viability, T/C [30]: 0.1% | viability, T/C [31]: 101% | viability, T/C [32]: 80.5% | viability, T/C [33]: 37.7% | viability, T/C [34]: 0.24% | viability, T/C [35]: 0.16% | viability, T/C [36]: 0.17%

IC50 (second compound 0.0316 µM): 2380 nM | IC50 (second compound 0.1 µM): 1070 nM | IC50 (second compound 0.316 µM): 45.3 nM | IC50 (second compound 1 µM): < 31.6 nM | IC50 (second compound 3.16 µM): < 31.6 nM | IC50 (second compound 10 µM): < 31.6 nM
SMILES: CC1COCCN1c1cc(C2(S(C)(=N)=O)CC2)nc(-c2ccnc3[nH]ccc23)n1 (stereo not drawn) + Cc1cnc(CNC(=O)c2c(=O)c3ccc(N4CCCN(C)CC4)nc3n3c2sc2ccccc23)cn1
viability, T/C [1]: 97.6% | viability, T/C [2]: 97.4% | viability, T/C [3]: 94.5% | viability, T/C [4]: 83.7% | viability, T/C [5]: 38.8% | viability, T/C [6]: 31.4% | viability, T/C [7]: 72.5% | viability, T/C [8]: 73.4% | viability, T/C [9]: 70% | viability, T/C [10]: 51.2% | viability, T/C [11]: 33.6% | viability, T/C [12]: 32.6% | viability, T/C [13]: 53.5% | viability, T/C [14]: 43.2% | viability, T/C [15]: 44.1% | viability, T/C [16]: 42.1% | viability, T/C [17]: 33.7% | viability, T/C [18]: 28.2% | viability, T/C [19]: 38.3% | viability, T/C [20]: 40.9% | viability, T/C [21]: 32% | viability, T/C [22]: 26.7% | viability, T/C [23]: 27.7% | viability, T/C [24]: 21.5% | viability, T/C [25]: 21.9% | viability, T/C [26]: 30.2% | viability, T/C [27]: 31.6% | viability, T/C [28]: 30.2% | viability, T/C [29]: 40.4% | viability, T/C [30]: 30% | viability, T/C [31]: 25.1% | viability, T/C [32]: 27.1% | viability, T/C [33]: 29.9% | viability, T/C [34]: 22.4% | viability, T/C [35]: 19.6% | viability, T/C [36]: 17.5%

SMILES: O=c1[nH]cc(F)c(=O)[nH]1 + CN(C)c1ccc(Nc2c3ccc(NC(=O)CCN4CCCC4)cc3nc3cc(NC(=O)CCN4CCCC4)ccc23)cc1
IC50 (second compound 0.0316 µM): 663 nM | IC50 (second compound 0.1 µM): 505 nM | IC50 (second compound 0.316 µM): 455 nM | IC50 (second compound 1 µM): 562 nM | IC50 (second compound 3.16 µM): 383 nM | IC50 (second compound 10 µM): 373 nM | viability, T/C [1]: 98.4% | viability, T/C [2]: 89.3% | viability, T/C [3]: 66.6% | viability, T/C [4]: 39.8% | viability, T/C [5]: 36.4% | viability, T/C [6]: 32.8% | viability, T/C [7]: 95.3% | viability, T/C [8]: 94.3% | viability, T/C [9]: 58.8% | viability, T/C [10]: 38% | viability, T/C [11]: 38.1% | viability, T/C [12]: 33.9% | viability, T/C [13]: 93.9% | viability, T/C [14]: 81.2% | viability, T/C [15]: 54.5% | viability, T/C [16]: 39.6% | viability, T/C [17]: 36.7% | viability, T/C [18]: 32.8% | viability, T/C [19]: 101% | viability, T/C [20]: 86.4% | viability, T/C [21]: 59.2% | viability, T/C [22]: 41.6% | viability, T/C [23]: 31.2% | viability, T/C [24]: 33.6% | viability, T/C [25]: 84.5% | viability, T/C [26]: 83.8% | viability, T/C [27]: 52.5% | viability, T/C [28]: 38% | viability, T/C [29]: 32% | viability, T/C [30]: 34% | viability, T/C [31]: 87.6% | viability, T/C [32]: 71.3% | viability, T/C [33]: 52.4% | viability, T/C [34]: 38.9% | viability, T/C [35]: 38.3% | viability, T/C [36]: 35.5%

IC50 (second compound 0.0316 µM): > 10000 nM | IC50 (second compound 0.1 µM): < 31.6 nM | IC50 (second compound 0.316 µM): < 31.6 nM | IC50 (second compound 1 µM): < 31.6 nM | IC50 (second compound 3.16 µM): < 31.6 nM | IC50 (second compound 10 µM): < 31.6 nM
SMILES: Cc1cccc(N(C)C(=O)C2C(O)CCN2c2nc(C)cc(C(F)(F)F)c2C#N)c1 (stereo not drawn) + Cc1cnc(CNC(=O)c2c(=O)c3ccc(N4CCCN(C)CC4)nc3n3c2sc2ccccc23)cn1
viability, T/C [1]: 106% | viability, T/C [2]: 101% | viability, T/C [3]: 109% | viability, T/C [4]: 103% | viability, T/C [5]: 95.8% | viability, T/C [6]: 98.6% | viability, T/C [7]: 37.9% | viability, T/C [8]: 68.2% | viability, T/C [9]: 56.2% | viability, T/C [10]: 80.6% | viability, T/C [11]: 81.8% | viability, T/C [12]: 49% | viability, T/C [13]: 50.5% | viability, T/C [14]: 46.1% | viability, T/C [15]: 50.2% | viability, T/C [16]: 48.9% | viability, T/C [17]: 57.9% | viability, T/C [18]: 42% | viability, T/C [19]: 32.6% | viability, T/C [20]: 35.1% | viability, T/C [21]: 39.1% | viability, T/C [22]: 31.9% | viability, T/C [23]: 38.3% | viability, T/C [24]: 29.3% | viability, T/C [25]: 31.7% | viability, T/C [26]: 27.9% | viability, T/C [27]: 33.5% | viability, T/C [28]: 30.5% | viability, T/C [29]: 29.1% | viability, T/C [30]: 34.8% | viability, T/C [31]: 30.5% | viability, T/C [32]: 37% | viability, T/C [33]: 31.1% | viability, T/C [34]: 26.7% | viability, T/C [35]: 32.2% | viability, T/C [36]: 29.9%
